Patent US20260209262A1, “MEMBRANE FILTRATION-ASSISTED SOLUTION PHASE OLIGONUCLEOTIDE SYNTHESIS” (EXACTMER LIMITED, priority 2022, published 2026)
≈ marks a conversion by molar mass, not a printed value.

Assay: Solubility of protected phosphoramidites in acetonitrile (aliquots added until a clear solution)
Assay type: physicochemical
Conditions: for Solubility: 30° C.
Procedure: A range of 5′-O-Dmtr-nucleoside-3′-O-(cyanoethyl-N, N-diisopropyl) phosphoramidites (FIG. 1. compounds 1-5) were studied to determine their suitability for solution-phase oligonucleotide synthesis in acetonitrile. Each compound (ca. 0.5 g) was placed in a flask with a magnetic stirrer immersed in an oil bath held at 30° C. To the flask was added acetonitrile (0.200 mL) and the contents stirred for 2 min. After this, further aliquots of acetonitrile (0.050 mL) were added, each time followed by stirring for 2 min. The volume of acetonitrile required to establish a clear solution was recorded. The solubility so determined is recorded in Table 1.

Row | Compound | Solubility | increase in solubility by protection of N3 (relative to unprotected 2a) | solubility in acetonitrile
1 | COc1ccc(C(OC[C@H]2O[C@@H](n3cc(C)c(=O)n(C(=O)c4ccccc4)c3=O)C[C@@H]2OP(OCCC#N)N(C(C)C)C(C)C)(c2ccccc2)c2ccc(OC)cc2)cc1 (some centres unmarked) [Compound 2b] | 1530 mM (≈ 1300 mg/mL) | more than 30% | –
2 | COc1ccc(C(OCC2OC(n3ccc(=O)n(C(=O)c4ccc(C(C)(C)C)cc4)c3=O)C(OC)C2OP(OCCC#N)N(C(C)C)C(C)C)(c2ccccc2)c2ccc(OC)cc2)cc1 (centres unmarked) [Compound 1c] | 1740 mM (≈ 1600 mg/mL) | – | –
3 | COc1ccc(C(OC[C@H]2O[C@@H](n3ccc(NC(C)=O)nc3=O)[C@H](OC)[C@@H]2OP(OCCC#N)N(C(C)C)C(C)C)(c2ccccc2)c2ccc(OC)cc2)cc1 (some centres unmarked) [Compound 3] | 1300 mM (≈ 1040 mg/mL) | – | –
4 | COc1ccc(C(=O)n2c(=O)ccn(C3OC(COC(c4ccccc4)(c4ccc(OC)cc4)c4ccc(OC)cc4)C(OP(OCCC#N)N(C(C)C)C(C)C)C3OC)c2=O)cc1 (centres unmarked) [Compound 1d] | 2420 mM (≈ 2170 mg/mL) | – | –
5 | COc1ccc(C(OCC2OC(n3cnc4c(NC(=O)c5ccccc5)ncnc43)C(OC)C2OP(OCCC#N)N(C(C)C)C(C)C)(c2ccccc2)c2ccc(OC)cc2)cc1 (centres unmarked) [Compound 4] | 1210 mM (≈ 1070 mg/mL) | – | –
6 | COc1ccc(C(OC[C@H]2O[C@@H](n3ccc(=O)[nH]c3=O)[C@H](OC)[C@@H]2OP(OCCC#N)N(C(C)C)C(C)C)(c2ccccc2)c2ccc(OC)cc2)cc1 (some centres unmarked) [Compound 1a] | 70 mM (≈ 53.3 mg/mL) | – | 50 mM (≈ 38 mg/mL)
7 | COc1ccc(C(OCC2OC(n3cnc4c(=O)[nH]c(NC(=O)C(C)C)nc43)C(OC)C2OP(OCCC#N)N(C(C)C)C(C)C)(c2ccccc2)c2ccc(OC)cc2)cc1 (centres unmarked) [Compound 5] | 1280 mM (≈ 1110 mg/mL) | – | –
8 | COc1ccc(C(OC[C@H]2O[C@@H](n3ccc(=O)n(C(=O)c4ccccc4)c3=O)[C@H](OC)[C@@H]2OP(OCCC#N)N(C(C)C)C(C)C)(c2ccccc2)c2ccc(OC)cc2)cc1 (some centres unmarked) [Compound 1b] | 1920 mM (≈ 1660 mg/mL) | – | –
9 | COc1ccc(C(OCC2OC(n3cc(C)c(=O)[nH]c3=O)CC2OP(OCCC#N)N(C(C)C)C(C)C)(c2ccccc2)c2ccc(OC)cc2)cc1 (centres unmarked) [Compound 2a] | 1160 mM (≈ 864 mg/mL) | – | –
